{"source": "ChEMBL document CHEMBL5614397", "about": "“Discovery of pyrrolo[2,3-d]pyrimidin-4-one derivative YCH3124 as a potent USP7 inhibitor for cancer therapy” (Eur J Med Chem, 2024)", "key": {"[1]": {"target": "T1, Ubiquitin carboxyl-terminal hydrolase 7 (Homo sapiens, UniProt Q93009)", "T1 sequence (Q93009 whole entry, looked up)": "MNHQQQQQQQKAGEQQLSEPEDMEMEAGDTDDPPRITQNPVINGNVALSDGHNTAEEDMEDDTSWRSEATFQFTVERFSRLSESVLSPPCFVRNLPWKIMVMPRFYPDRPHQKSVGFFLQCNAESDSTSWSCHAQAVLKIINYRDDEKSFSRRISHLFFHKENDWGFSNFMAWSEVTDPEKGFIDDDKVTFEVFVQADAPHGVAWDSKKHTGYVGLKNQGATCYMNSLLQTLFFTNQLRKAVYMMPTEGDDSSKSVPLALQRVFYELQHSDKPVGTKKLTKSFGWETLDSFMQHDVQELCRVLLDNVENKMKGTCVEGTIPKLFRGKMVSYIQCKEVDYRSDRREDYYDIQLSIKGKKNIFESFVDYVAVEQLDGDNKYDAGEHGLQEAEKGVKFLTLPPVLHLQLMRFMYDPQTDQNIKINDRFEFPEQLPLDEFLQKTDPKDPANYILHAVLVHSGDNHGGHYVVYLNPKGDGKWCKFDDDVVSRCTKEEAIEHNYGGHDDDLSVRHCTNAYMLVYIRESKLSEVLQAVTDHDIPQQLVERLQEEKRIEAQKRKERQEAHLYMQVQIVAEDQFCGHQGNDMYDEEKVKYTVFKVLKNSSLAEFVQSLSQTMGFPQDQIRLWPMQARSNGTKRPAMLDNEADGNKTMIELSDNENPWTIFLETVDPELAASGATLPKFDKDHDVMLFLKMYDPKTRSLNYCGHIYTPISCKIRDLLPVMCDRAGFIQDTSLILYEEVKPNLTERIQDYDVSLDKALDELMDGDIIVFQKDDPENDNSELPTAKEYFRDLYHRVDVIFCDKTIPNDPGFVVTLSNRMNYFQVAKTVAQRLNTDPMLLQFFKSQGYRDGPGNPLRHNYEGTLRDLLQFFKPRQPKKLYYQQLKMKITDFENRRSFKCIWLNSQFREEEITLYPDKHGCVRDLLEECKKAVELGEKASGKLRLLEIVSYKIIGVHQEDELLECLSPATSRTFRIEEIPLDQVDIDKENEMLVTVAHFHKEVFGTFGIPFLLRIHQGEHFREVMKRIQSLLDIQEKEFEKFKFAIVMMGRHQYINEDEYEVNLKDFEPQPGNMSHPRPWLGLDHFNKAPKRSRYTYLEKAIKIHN", "settings": "MM1.S, dose 0-1000 nM, time 24.0 hrs"}, "[2]": {"target": "T1, Ubiquitin carboxyl-terminal hydrolase 7", "settings": "MM1.S, dose 0-1000 nM, time 24.0 hrs", "remark": "listed apart in the source"}, "[3]": {"target": "T2, Ubiquitin carboxyl-terminal hydrolase 4 (Homo sapiens) (UniProt Q13107)", "T2 sequence (whole entry)": "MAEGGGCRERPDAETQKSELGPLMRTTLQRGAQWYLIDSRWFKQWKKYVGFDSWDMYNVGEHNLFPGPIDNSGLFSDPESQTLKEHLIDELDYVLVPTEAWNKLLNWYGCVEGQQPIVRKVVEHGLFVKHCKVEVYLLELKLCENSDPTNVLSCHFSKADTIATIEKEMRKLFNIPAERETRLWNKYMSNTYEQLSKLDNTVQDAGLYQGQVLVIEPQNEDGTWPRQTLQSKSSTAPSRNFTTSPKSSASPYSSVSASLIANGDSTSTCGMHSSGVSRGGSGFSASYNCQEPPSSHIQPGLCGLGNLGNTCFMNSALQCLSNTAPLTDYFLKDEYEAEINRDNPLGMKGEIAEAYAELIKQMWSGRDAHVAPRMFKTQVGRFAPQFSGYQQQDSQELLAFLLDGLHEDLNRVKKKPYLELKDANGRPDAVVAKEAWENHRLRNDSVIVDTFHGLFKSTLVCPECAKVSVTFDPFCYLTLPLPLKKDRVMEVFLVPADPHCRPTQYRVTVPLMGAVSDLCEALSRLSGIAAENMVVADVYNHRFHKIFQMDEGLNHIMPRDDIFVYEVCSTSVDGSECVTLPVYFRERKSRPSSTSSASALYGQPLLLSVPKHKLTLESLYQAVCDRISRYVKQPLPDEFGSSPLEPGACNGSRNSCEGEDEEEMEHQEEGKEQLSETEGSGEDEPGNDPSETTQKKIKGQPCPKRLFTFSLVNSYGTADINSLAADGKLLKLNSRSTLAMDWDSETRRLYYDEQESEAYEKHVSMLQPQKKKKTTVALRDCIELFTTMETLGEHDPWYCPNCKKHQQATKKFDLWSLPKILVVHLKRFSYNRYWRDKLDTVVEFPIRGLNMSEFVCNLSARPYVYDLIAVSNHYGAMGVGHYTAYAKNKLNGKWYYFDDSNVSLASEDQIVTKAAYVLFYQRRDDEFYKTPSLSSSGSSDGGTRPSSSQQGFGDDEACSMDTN", "test": "Inhibition of USP4 (unknown origin) using Ub-AFC as substrate assessed as substrate cleavage at 1 to 10 uM preincubated for 15 mins followed by substrate addition and measured after 1 hrs by fluorescence assay", "settings": "dose 1-10 µM, time 75.0 min"}}, "note": "Activity calls are given as the source filed them. The rule behind the calls is not given here.", "data": [{"smiles": "COc1ccc(-n2ccc3c(=O)n(CC4(O)CCN(C(=O)C[C@@H](C)c5ccccc5)CC4)cnc32)cc1OC", "values": [{"measurement": "inhibition", "setting": "[1]", "result": "Dose-Dependent Effect"}, {"measurement": "inhibition", "setting": "[2]", "result": "Dose-Dependent Effect"}, {"measurement": "inhibition", "setting": "[3]", "result": "inactive"}]}]}
